Measurements published in patent US6358995B1, “Carboxylic acid derivatives having fused rings” (Eisai Co., Ltd., priority 1996, dated 2002).

What was measured:
Assay in all cases: Transcription accelerating activity through RARs (PLAP reporter in COS-1 cells)
Assay type in all cases: cell-based
Conditions in all cases: relative to ED30 of all-trans retinoic acid = 1, ED30 = concentration giving 30% of activity induced by 1 μM all-trans retinoic acid
RAR-α = biological target: T1, RAR-α (Homo sapiens, UniProt P10276)
T1 construct: expressed in transfected cells; host or cells: COS-1 (African green monkey kidney cells), transient lipofection
T1 sequence (P10276 1-462): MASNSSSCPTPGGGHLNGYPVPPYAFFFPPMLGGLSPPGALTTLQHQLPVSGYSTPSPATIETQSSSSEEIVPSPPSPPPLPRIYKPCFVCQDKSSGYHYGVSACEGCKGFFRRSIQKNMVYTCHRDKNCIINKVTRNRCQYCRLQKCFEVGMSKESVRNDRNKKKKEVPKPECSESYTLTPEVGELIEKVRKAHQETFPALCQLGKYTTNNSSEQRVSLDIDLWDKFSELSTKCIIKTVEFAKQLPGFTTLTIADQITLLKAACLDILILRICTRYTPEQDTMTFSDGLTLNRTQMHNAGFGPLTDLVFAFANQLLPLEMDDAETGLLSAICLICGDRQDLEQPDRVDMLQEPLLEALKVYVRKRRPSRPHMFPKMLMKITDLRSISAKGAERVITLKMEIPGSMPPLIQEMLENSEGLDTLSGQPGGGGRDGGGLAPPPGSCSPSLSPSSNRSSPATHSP
Excerpt: (§1) Measurement of the Activities of Accelerating Trans-cription Through RARs
(§2) Human RAR Expression Vectors and secretory alkaline phosphatase (PLAP) gene vectors (PLAP vectors) containing in a state integrated into the upstream a competent sequence whose expression is […] through binding with RAR depending on a ligand were temporarily transferred into COS-1 (African green monkey kidney cells), and the PLAP which had been produced depending on a ligand and secreted into a culture medium was analyzed by the chemiluminescence method to determine the transcription-accelerating activity of each compound. Further, the selectivity of each compound among RARs was determined by comparing the transcription accelerating activities of the compound for the receptors with each other.
(§3) On a 60-mm culture dish were scattered 2.5×10^4 COS-1 cells. Four days after, human RAR α, β and γ expression vectors and PLAP vectors were transferred into the cells each in an amount of 4 μg by the lipofection method. Another day after, the resulting cells were recovered, and put on a 96-well culture plate in an amount of 2×10^4 per unit well. Four hours after, the cells were put on a medium containing charcoal-treated fetal bovine serum, followed by the addition of a dilution of all-trans retinoic acid or a test compound. After the lapse of 36 hours, the supernatant was recovered and the resulting samples were treated at 65° C. for 10 minutes to eliminate the non-specific activity. 15 μl of each sample was mixed with 60 μl of a 28 mM sodium carbonate buffer(pH10), followed by the addition of 75 μl of Smilight (trade name, a product of Sumitomo Metal Industries, Ltd., substrate for chemiluminescence). The resulting mixture was reacted at 37° C. for 30 minutes and the intensity of luminescence was determined. The compounds which will be described below induced the transcription activities of RARs dependently on the concentration.

RAR-β = biological target: T2, RAR-β (Homo sapiens, UniProt P10826)
T2 construct: expressed in transfected cells; host or cells: COS-1 (African green monkey kidney cells), transient lipofection
T2 sequence (P10826 1-455): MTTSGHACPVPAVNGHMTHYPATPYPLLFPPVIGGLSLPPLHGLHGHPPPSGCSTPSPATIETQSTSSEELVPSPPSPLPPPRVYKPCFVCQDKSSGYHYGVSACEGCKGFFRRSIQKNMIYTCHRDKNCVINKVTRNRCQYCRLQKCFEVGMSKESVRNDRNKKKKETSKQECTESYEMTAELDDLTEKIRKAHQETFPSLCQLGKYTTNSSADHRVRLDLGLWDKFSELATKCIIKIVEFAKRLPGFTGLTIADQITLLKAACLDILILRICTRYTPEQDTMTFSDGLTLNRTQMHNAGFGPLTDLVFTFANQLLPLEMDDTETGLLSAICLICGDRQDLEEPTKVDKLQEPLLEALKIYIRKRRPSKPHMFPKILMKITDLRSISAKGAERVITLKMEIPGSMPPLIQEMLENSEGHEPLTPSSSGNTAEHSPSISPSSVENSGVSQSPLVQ
Excerpt: as §1, §2, §3

RAR-γ = biological target: T3, RAR-γ (Homo sapiens, UniProt P13631)
T3 construct: expressed in transfected cells; host or cells: COS-1 (African green monkey kidney cells), transient lipofection
T3 sequence (P13631 1-454): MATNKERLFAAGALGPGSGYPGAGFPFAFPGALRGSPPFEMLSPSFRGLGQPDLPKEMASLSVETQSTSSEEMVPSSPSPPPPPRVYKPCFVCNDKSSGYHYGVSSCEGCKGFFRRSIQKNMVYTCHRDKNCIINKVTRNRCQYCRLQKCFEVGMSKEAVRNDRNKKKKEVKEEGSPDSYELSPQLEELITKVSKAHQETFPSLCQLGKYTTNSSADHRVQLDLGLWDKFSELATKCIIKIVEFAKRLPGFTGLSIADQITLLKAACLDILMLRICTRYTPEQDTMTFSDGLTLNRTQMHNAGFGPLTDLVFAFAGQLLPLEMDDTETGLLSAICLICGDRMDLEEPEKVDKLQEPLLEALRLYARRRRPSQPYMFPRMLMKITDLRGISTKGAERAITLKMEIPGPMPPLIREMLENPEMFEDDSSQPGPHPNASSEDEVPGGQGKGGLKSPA
Excerpt: as §1, §2, §3

Row | Compound | Transcription accelerating activity Relative ED30 RAR-α (RAR-α) | Transcription accelerating activity Relative ED30 RAR-β (RAR-β) | Transcription accelerating activity Relative ED30 RAR-γ (RAR-γ)
1 | Cc1cc(C)c2oc(-c3ccc(-c4ccc(C(=O)O)cc4)[nH]3)cc2c1 [Example 50, 4-{2-[5-(5,7-Dimethylbenzofuran-2-yl)pyrrolyl]}benzoic acid] | 0.38 | 280 | 710
2 | Cc1cccc2c1C=C(c1ccc(-c3ccc(C(=O)O)cc3)[nH]1)CO2 [Example 129, 4-{2-[5-(5-Methyl-2H-chromen-3-yl)pyrrolyl]}benzoic acid] | 4.4 | 1050 | 2400
3 | Cc1cccc2ccc(-c3ccc(-c4ccc(C(=O)O)cc4)[nH]3)cc12 [Example 6, 4-{2-[5-(8-Methylnaphthalen-2-yl)pyrrolyl]}benzoic acid] | 0.9 | 110 | 240
4 | COc1ccc2ccc(-c3ccc(-c4ccc(C(=O)O)cc4)[nH]3)cc2c1C [Example 4, 4-{2-[5-(7-Methoxy-8-methylnaphthalen-2-yl)pyrrolyl]}benzoic acid] | 49 | — (—; >4000) | — (—; >4000)

Further lines, results first:

Row | Transcription accelerating activity Relative ED30 RAR-α (RAR-α) | Transcription accelerating activity Relative ED30 RAR-β (RAR-β) | Transcription accelerating activity Relative ED30 RAR-γ (RAR-γ) | Compound
5 | 1.0 | 160 | 1400 | O=C(O)c1ccc(-c2ccc(-c3cc4c(Cl)ccc(Cl)c4o3)[nH]2)cc1 [Example 14, 4-{2-[5-(4,7-Dichlorobenzofuran-2-yl)pyrrolyl]}benzoic acid]
6 | 0.63 | 170 | 1000 | O=C(O)c1ccc(-c2ccc(-c3cc4c(F)ccc(F)c4o3)[nH]2)cc1 [Example 27, 4-{2-[5-(4,7-Difluorobenzofuran-2-yl)pyrrolyl]}benzoic acid]
7 | 0.66 | 59 | 300 | CCc1ccc(Cl)c2cc(-c3ccc(-c4ccc(C(=O)O)cc4)[nH]3)oc12 [Example 20, 4-{2-[5-(4-Chloro-7-ethylbenzofuran-2-yl)pyrrolyl]}benzoic acid]
